The source of these data is patent US20250276998A1, “NOVEL DAROBACTIN DERIVATIVES” (Helmholtz-Zentrum Fur Infektionsforschung GmbH, priority 2021, published 2025).

For experiment [1], the system named is E. coli ATCC25922. In words: MIC assay of crude extracts, relative activity vs darobactin A. Type of experiment: cell-based, Escherichia coli. The note with it: crude extract, relative to darobactin A, amount from LC-MS AUC. The procedure:
(§1) Crude extracts of darobactin derivatives obtained by the heterologous expression and separation protocol described above were tested for their activity against exemplified Gram-negative bacteria with a minimum inhibitory concentration (MIC) assay. The presence of darobactin derivatives in the crude extracts was verified by checking the expected masses via LC-MS.
(§2) For the MIC assay, 10 μl of crude extract of each test sample, diluted in 50% methanol/H2O, was added each into a well of the first row of a 96 well plate. […] Then, 75 μl of cation-adjusted Mueller-Hinton broth medium was added to each well and the samples contained in the first row were mixed with the 75 μl medium/extract mixture. Starting from the […] mixtures in the first row, serial dilutions of the respective mixtures were prepared in corresponding subjacent rows of the 96 well plate. Bacterial suspensions of each strain to be tested were diluted 1:100 in cation-adjusted Mueller-Hinton broth to obtain a final inoculum of approximately 10^6 CFU/mL. 75 μl of each bacterial suspension to be tested was added to the respective crude extract samples in the wells of the 96 well plate and the plates were incubated at either 30° C. or 37° C. for at least 24 h under static conditions. Plates were then checked visually and MIC was determined as lowest concentration where no visible growth was observed. In order to quantify the activity of the obtained darobactin derivatives, their relative activity in relation to the activity of darobactin A was determined. The amount of darobactin derivative present in the extract test sample was calculated based on the area under the curve (AUC) of the mass peak as automatically calculated by software DataAnalysis 4.2 and extracted from the LC-MS measurements of each of the crude extract samples. Using the AUC of the mass peak of darobactin A (DA) as calibration standard, i.e. ratio between AUC of darobactin derivative and darobactin A was correlated to amount of compound present in sample. The results of activities of tested darobactin derivatives against exemplified Gram-negative bacteria as compared to the activity of darobactin A are summarized in Table 5 below.

Experiment [2] deals with Pseudomonas aeruginosa PA01. The description is as above. Format: cell-based. To be noted: crude extract, relative to darobactin A, amount from LC-MS AUC. The procedure:
as §1, §2

Experiment [3] concerns Klebsiella pneumoniae DSM-30104. The description is as above. To be noted: crude extract, relative to darobactin A, amount from LC-MS AUC. Type of experiment: cell-based. The method, then:
as §1, §2

Experiment [4] deals with Acinetobacter baumannii DSM-30008. The experiment is described as above. Type of experiment: cell-based. The note with it: crude extract, relative to darobactin A, amount from LC-MS AUC. The method, then: as §1, §2
For experiment [5], the system named is E. coli ATCC25922. In words: Microbroth dilution of crude extracts, concentration factor at full growth inhibition. Type of experiment: cell-based, Escherichia coli. The procedure: (§3) Crude extracts containing the respective darobactin derivatives obtained by the heterologous expression and separation protocol described above were tested for their activity against exemplified Gram-negative bacteria in standard microbroth dilution assays. The presence of darobactin derivatives in the crude extracts was verified by checking the expected masses via LC-HRMS.
(§4) All microorganisms were handled according to standard procedures as recommended by the depositor. Strains were obtained from the German Collection of Cell Cultures and Microorganisms (Klebsiella pneumoniae DSM-30104, Acinetobacter baumannii DSM-30007 and A. baumannii DSM-30008), the American Type Culture Collection (Escherichia coli ATCC-25922), or were part of our internal strain collection (Pseudomonas aeruginosa PAO1, PA14 and PA14ΔmexAB).
(§5) For the MIC assay, 10 μl of crude extract of each test sample, diluted in 50% methanol/H2O, was added each into a well of the first row of a 96 well plate. […] Then, 75 μl of cation-adjusted Mueller-Hinton broth medium was added to each well and the samples contained in the first row were mixed with the 75 μl medium/extract mixture. Starting from the 150 μl mixtures in the first row, serial dilutions of the respective mixtures were prepared in corresponding subjacent rows of the 96 well plate. […]

In the next experiment the test system is P. aeruginosa PAO1. The experiment is described as above. Format: cell-based, Pseudomonas aeruginosa. The method, then: as §3, §4, §5
The test system of another experiment is K. pneumoniae DSM-30104. Described as above. Type of experiment: cell-based, Klebsiella pneumoniae. The method, then: as §3, §4, §5
The subject of the next experiment is A. baumannii DSM-30008. Described as above. Format: cell-based, Acinetobacter baumannii. To be noted: A. baumannii DMS-30008. The method, then: as §3, §4, §5
Experiment [6] has as its system A. baumannii 047 (OXA-235). The experiment is described as follows: MIC against clinical isolates of A. baumannii. Format: cell-based, Acinetobacter baumannii. To be noted: clinical isolate A. baumannii 047 (OXA-235).
Experiment [7] concerns A. baumannii 054 (OXA-51-ISAba1). In words: MIC against clinical isolates of A. baumannii. Format: cell-based, Acinetobacter baumannii. The note with it: clinical isolate A. baumannii 054 (OXA-51-ISAba1).
The next experiment has as its system A. baumannii 070 (NDM-1). In words: MIC against clinical isolates of A. baumannii. Type of experiment: cell-based, Acinetobacter baumannii. To be noted: clinical isolate A. baumannii 070 (NDM-1).
The subject of experiment [8] is A. baumannii 038 (OXA-23). In words: MIC against clinical isolates of A. baumannii. Type of experiment: cell-based, Acinetobacter baumannii. To be noted: clinical isolate A. baumannii 038 (OXA-23).
The test system of experiment [9] is A. baumannii 045 (OXA-58). In words: MIC against clinical isolates of A. baumannii. Type of experiment: cell-based, Acinetobacter baumannii. To be noted: clinical isolate A. baumannii 045 (OXA-58).
In experiment [10] the test system is A. baumannii 046 (OXA-40). In words: MIC against clinical isolates of A. baumannii. Format: cell-based, Acinetobacter baumannii. To be noted: clinical isolate A. baumannii 046 (OXA-40).

Converted amounts (≈) assume the structure as drawn. A value given as a limit tells only on which side of the number the result lay.

As for `NCCC[C@H]1c2ccc3c(c[nH]c3c2)[C@H]2Oc3cccc4c(c[nH]c34)C[C@H](N)C(=O)N[C@@H](CC(N)=O)C(=O)N[C@@H]2C(=O)N[C@@H](CO)C(=O)N[C@@H]1C(=O)N[C@@H](CO)C(=O)N[C@@H](Cc1ccc(O)cc1)C(=O)O` [Darobactin 10], the Relative activity was 0 in the experiment on E. coli ATCC25922 [1], “+” in [2], 0 in experiment [3] and 0 in [4].

On to `NCCC[C@H]1c2ccc3c(c[nH]c3c2)[C@H]2Oc3cccc4c(c[nH]c34)C[C@H](N)C(=O)N[C@@H](CCC(N)=O)C(=O)N[C@@H]2C(=O)N[C@@H](CO)C(=O)N[C@@H]1C(=O)N[C@@H](CO)C(=O)N[C@@H](Cc1ccccc1)C(=O)O` [Darobactin 11], for which the Relative activity result was “+++++” in the experiment with E. coli ATCC25922 [1], “+++++” in experiment [2], “++++” in experiment [3] and “+++++” in experiment [4].

Consider `C[C@@H]1NC(=O)[C@H]2NC(=O)[C@H](CC(N)=O)NC(=O)[C@@H](N)Cc3c[nH]c4c(cccc34)O[C@@H]2c2c[nH]c3cc(ccc23)[C@H](CCCN)[C@@H](C(=O)N[C@@H](CO)C(=O)N[C@@H](Cc2ccccc2)C(=O)O)NC1=O` [Darobactin 14], for which the Relative activity entry is reported as “+++” in the experiment with E. coli ATCC25922 [1], “++” in experiment [2], “+++” in experiment [3] and “++” in experiment [4].

`C[C@H](NC(=O)[C@H]1NC(=O)[C@H](CO)NC(=O)[C@H]2NC(=O)[C@H](CC(N)=O)NC(=O)[C@@H](N)Cc3c[nH]c4c(cccc34)O[C@@H]2c2c[nH]c3cc(ccc23)[C@@H]1CCCN)C(=O)N[C@@H](Cc1ccccc1)C(=O)O` [Darobactin 16]: the Relative activity result (in the experiment on E. coli ATCC25922 [1]; in experiment [2]; in experiment [3]; in experiment [4]) was “+” in each case.

Take `C[C@@H]1NC(=O)[C@H]2NC(=O)[C@H](CC(N)=O)NC(=O)[C@@H](N)Cc3c[nH]c4c(cccc34)O[C@@H]2c2c[nH]c3cc(ccc23)[C@H](CCCN)[C@@H](C(=O)N[C@@H](CO)C(=O)N[C@@H](Cc2c[nH]c3ccccc23)C(=O)O)NC1=O` [Darobactin 30]: the “Concentration factor of crude extract at which full growth inhibition is observed” value in the experiment with E. coli ATCC25922 [5] was 0.83x; in the experiment on P. aeruginosa PAO1, 0.11x; in the experiment with K. pneumoniae DSM-30104, 1.67x; with A. baumannii DSM-30008 it was 0.83x.

Consider `C[C@@H](O)[C@@H]1NC(=O)[C@H]2NC(=O)[C@H](CC(N)=O)NC(=O)[C@@H](N)Cc3c[nH]c4c(cccc34)O[C@@H]2c2c[nH]c3cc(ccc23)C(CCNC(=N)N)[C@@H](C(=O)N[C@@H](CCCNC(=N)N)C(=O)N[C@@H](Cc2c[nH]c3ccccc23)C(=O)O)NC1=O` (stereo partly shown) [Darobactin 39], for which the “Concentration factor of crude extract at which full growth inhibition is observed” value worked out at 0.42x in the experiment with E. coli ATCC25922 [5], 0.11x in the experiment on P. aeruginosa PAO1, 0.42x in the experiment on K. pneumoniae DSM-30104 and 0.05x with A. baumannii DSM-30008.

With `N=C(N)NCC[C@H]1c2ccc3c(c[nH]c3c2)[C@H]2Oc3cccc4c(c[nH]c34)C[C@H](N)C(=O)N[C@@H](CC(N)=O)C(=O)N[C@@H]2C(=O)N[C@@H](CO)C(=O)N[C@@H]1C(=O)N[C@@H](CO)C(=O)N[C@@H](Cc1ccccc1)C(=O)O` [Darobactin D], the Relative activity result in the experiment with E. coli ATCC25922 [1] was “++++”; in experiment [2], “++++”; in experiment [3], 0; in experiment [4], “++++”.

As to `CCCCCCC1OC(=O)CNC(=O)C(C(C)O)NC(=O)C(CO)NC(=O)C(C(C)CC)NC(=O)C(CC(C)C)N(C)C(=O)C1C` (stereo not shown) [Globomycin], the MIC was 64 µg/mL (≈ 97.6 µM) in experiment [6]; above 64 µg/mL in experiment [7]; 16 µg/mL (≈ 24.4 µM) in the experiment with A. baumannii 070 (NDM-1); 32 µg/mL (≈ 48.8 µM) in experiment [8]; 64 µg/mL (≈ 97.6 µM) in experiment [9]; 32 µg/mL (≈ 48.8 µM) in [10].
